Usually IC50 stands for the concentration needed to halve the response being measured. A lower IC50 goes with inhibition by little substance.

Each structure is given as a SMILES string. Entries after “also recorded” stand apart in the source; their conditions may differ.

In the assay the target is SARS-CoV-2 M^pro (Severe acute respiratory syndrome coronavirus 2, UniProt P0DTD1). Nature of the assay: M^pro activity assay and inhibition (fluorogenic substrate). Format: biochemical. The settings on record: for inhibition of M^pro catalytic activity (in words) / slope m of the fluorescence inhibition curve: inhibitor 30 μM; for inhibition of M^pro catalytic activity (in words): fluorescence assay; for slope m of the fluorescence inhibition curve: ≈0.2 μM M^pro, 40 μM substrate, 30 °C, 20 min preincubation, linear fit up to 30 min.

As for `Fc1c(F)c(N2CCOCCOCCOCCOCCOCC2)c(F)c(F)c1-c1nc(-c2ccccc2)no1` [Inhibitor 4, 16-(2,3,5,6-tetrafluoro-4-(3-phenyl-1,2,4-oxadiazol-5-yl)phenyl)-1,4,7,10,13-pentaoxa-16-azacyclooctadecane], the “inhibition of M^pro catalytic activity (in words)” value (“inhibition … (in words)” below) is “irreversible inactivation of the enzyme; also recorded: most effective among the seven inhibitors”; the “slope m of the fluorescence inhibition curve” value was 0±6 RFU/min and ≈ 0 RFU/min.
As for `CCNC(=O)c1noc(-c2c(F)c(F)c(NCCN(CCNc3c(F)c(F)c(-c4nc(C(=O)NCC)no4)c(F)c3F)CCNc3c(F)c(F)c(-c4nc(C(=O)NCC)no4)c(F)c3F)c(F)c2F)n1` [Inhibitor 7, 5,5’,5”-(((nitrilotris(ethane-2,1-diyl))tris(azanediyl))tris(2,3,5,6-tetrafluorobenzene-4,1-diyl))tris(N-ethyl-1,2,4-oxadiazole-3-carboxamide)], the “inhibition … (in words)” value is listed as “irreversible inactivation of the enzyme; also recorded: promising inhibition effect”; the “slope m of the fluorescence inhibition curve” value is 1±3 RFU/min and ≈ 1 RFU/min. In addition, under “Hill equation fit of percent inhibition”, the Hill slope n is 3±1. In addition, the IC50 (Hill equation fit of percent inhibition vs inhibitor concentration) is 15 ± 2 µM.
On to `OCCN(CCOc1c(F)c(F)c(-c2nc(-c3ccncc3)no2)c(F)c1F)CCOc1c(F)c(F)c(-c2nc(-c3ccncc3)no2)c(F)c1F` [Inhibitor 3], for which the “inhibition … (in words)” value is reported as “week” and the “slope m of the fluorescence inhibition curve” value is given as 23±3 RFU/min.

These data come from paper PMC8085067, “The dimer-monomer equilibrium of SARS-CoV-2 main protease is affected by small molecule inhibitors” (Scientific Reports, 2021).
